What was measured:
DORmO mice = test: DORmO mouse model of type 1 diabetes; format: in vivo; settings: for HA accumulation in DORmO pancreatic islets (HA staining): 12 weeks of age, compared to untreated DORmO mice; for onset / progression of T1D as measured by blood glucose over time: fed from 5 weeks of age for 15 weeks
Text: 10×RIPmOVA (DORmO) mouse. DORmO mice carry a T-cell receptor transgene specific for OVA (emulating autoreactive CD4+ T-cells), while simultaneously expressing OVA in conjunction with the insulin gene promoter on pancreatic beta cells (emulating the autoantigen). All animals were bred and maintained under specific pathogen-free conditions, with free access to food and water, in the animal facilities at Stanford University Medical School (Stanford, Calif.). B6 db/db LeptR-/- mice were purchased from Jackson Laboratories (JAX) as well as DO11.10 transgenic mice. The DO11.10 mice were bred with Balb/c mice expressing RIPmOva (ovalbumin peptide amino acids 323-339; available at the Benaroya Research Institute) to generate the DORmO double-transgenic mice. In addition, C57Bl/6J mice were bred in-house at Stanford University School of Medicine. Beginning at four weeks of age, mice were weighed weekly as well as bled via the tail vein for the determination of their blood glucose level using a Contour® blood glucose meter and blood glucose monitoring strips (Bayer Healthcare). When two consecutive blood glucose readings of 250 mg/dL were recorded, animals were considered diabetic. When two consecutive blood glucose readings of 300 mg/dL were recorded, animals were euthanized. The 4-MU (Alfa Aesar) was pressed into mouse chow (TestDiet, St. Louis, Mo.) and irradiated before shipment, as previously described (Nagy N., et al., Circulation. 2010; 122(22):2313-2322). This chow formulation delivers 250 mg/mouse/day, yielding a serum drug concentration of 640.3±17.2 nmol/L in mice, as measured by HPLC-MS. 4-MUG ([…], Wood Dale, Ill.) was distributed in the drinking water at a concentration of 2 mg/ml, delivering 10 mg/mouse/day, yielding a serum drug concentration of 357.1±72.6 ng/mL in mice, as measured by LC-MS/MS. Mice were initiated on 4-MU and 4-MUG at five, eight or twelve weeks of age, unless otherwise noted, and were maintained on this diet until they were euthanized, unless otherwise noted. For analysis of Foxp3+ regulatory T-cell numbers in naïve mice, mice were treated daily with 0.5 mg of 4-MU or 1.0 mg 4-MUG in 200 μl 0.08% carboxymethylcellulose in saline by intra-peritoneal injection. Tissues for histochemistry were extracted from the animals and immediately transferred into 10% neutral buffered formalin (NBF). The tissue was processed to paraffin on a Leica ASP300 Tissue Processor (Leica Microsystems Inc.). Then 5 μm thick sections were cut on a Leica RM 2255 Microtomes (Leica Microsystems Inc.). All staining steps were performed on a Leica Bond-MaxTM automated immune histochemistry (IHC) stainer (Leica Microsystems Inc.). For HA affinity histochemistry (AFC) the BondTM Intense R Detection kit, a streptavidin-HRP system, (Leica Microsystems, Inc.) was used with 4 μg/mL biotinylated-HABP in 0.1% BSA-PBS as the primary. The BondTM Polymer Detection Kit was used for all other immunohistochemistry. This detection kit contains a goat anti-rabbit conjugated to polymeric HRP and a rabbit anti-mouse post primary reagent for use with mouse primaries. For Foxp3 and insulin (anti-insulin, ab7842 abcam) sections were incubated 60 min with 8 μg/mL rat anti-Foxp3 clone FJK-16s (eBioscience). Incubation with rabbit anti rat IgG (Vector Labs), post-primary was added in lieu of the post-primary reagent from the kit.

[1] = Chemical stability of 4-MUG in fasted state simulated gastric fluid; format: physicochemical; settings: 100 μM, FaSSGF pH 1.6, 37° C., 0-120 minutes
Protocol: To determine the chemical stability of 4-MUG, its half-life (t1/2) was evaluated. 4-MUG was tested at a concentration of 100 μM. The internal standard (IS) was prepared at 50 ng/mL with tolbutamide in DMSO and a buffer solution was prepared of fasted state simulated gastric fluid (FaSSGF) at pH 1.6. The buffer was pre-warmed at 37° C. for 15 minutes, subsequently 4-MUG was added, and the solution was vortexed. Next, 30 μL of this reaction mixture was removed at each time point for analysis. The time points included 0 minutes, 15 minutes, 30 minutes, 60 minutes and 120 minutes. The reaction was stopped at the end of the experiment by adding IS solution. The samples were centrifuged at 4,000 rpm for 15 minutes at 4° C. 100 μL of the supernatant was mixed with distilled water for further liquid chromatography with tandem mass spectrometry (LC-MS/MS) analysis. The mass spectrometry detection was performed using a SCIEX® API 4500 Qtrap® (Sciex, Redwood City, Calif.). Each compound was analyzed by reverse phase high performance liquid chromatography (HPLC). The parameters calculated were the ratio of 4-MUG, the percent of 4-MUG remaining versus time, and the estimation of 4-MUG's t1/2.

[2] = Water solubility (statement); format: physicochemical

chemical stability [1]	water solubility [2]	Structure (SMILES)	HA accumulation in DORmO pancreatic islets (HA staining) (DORmO mice)	onset / progression of T1D as measured by blood glucose over time (DORmO mice)	insulin positive cells in pancreatic islets (DORmO mice; DORmO mice)	Foxp3 regulatory T-cells in pancreatic islets (FoxP3 staining) (DORmO mice; non-diabetic treated DORmO mice)
stable	water-soluble	Cc1cc(=O)oc2cc(O[C@@H]3O[C@H](C(=O)O)[C@@H](O)[C@H](O)[C@H]3O)ccc12 [4-MUG, 4-methylumbelliferone-glucuronide]	decrease of HA accumulation	delayed the onset of T1D		
		Cc1cc(=O)oc2cc(O)ccc12 [4-MU, 4-methylumbelliferone]	decrease of HA accumulation	sufficient to stop diabetes progression	insulin positive cells were preserved	increase of Foxp3 regulatory T-cells

From US20220079966A1, “HYALURONAN SYNTHESIS INHIBITION FOR TREATING AUTOIMMUNE, INFLAMMATORY, FIBROTIC, OR PROLIFERATIVE DISEASES OR DISORDERS” (The Board of Trustees of the Leland Stanford Junior …, priority 2018, published 2022)
